Experimental findings from article PMC9234961 (Journal of Medicinal Chemistry, 2022) are described below.

The target in data set [1] is endogenous BCL6 in OCI-Ly1 cells (Homo sapiens, UniProt P41182). Nature of the data set: cell-based. The note with it: for degradation of BCL6 (in words): OCI-Ly1 MSD assay; for MSD degrader assay [OCI-Ly1] Dmax: mean maximal degradation of BCL6.
Data set [2] is described as follows: Microsomal clearance assay (MLM). In kind it is in vitro ADME. The following applies: female, CD1, pH 7.4; mouse liver microsomes, 1 μM compound. As to the method: 6. Supplementary experimental: in vitro DMPK assays
6.1 Microsomal clearance assay
Microsomal clearance was determined in female CD1 mice, female Sprague–Dawley rats, and mixed gender human liver microsomes obtained from BioIVT (Peterborough, U.K.) following incubation of 1 μM compound at 37 °C in 0.5 mg/mL microsomal protein, 3 mmol/L MgCl2, 1 mmol/L NADPH, 2.5 mmol/L and 10 mmol/L phosphate buffer (pH 7.4) (all purchased from Sigma-Aldrich, Gillingham, U.K). Reactions were started by addition of the cofactors following 10 min preincubation of microsomes with test compound and were terminated at −1, 0, 5, 10, 15, and 30 min with three volumes of ice-cold methanol containing internal standard. Samples were centrifuged at 2800g for 30 min at 4 °C and the supernatants analyzed.
Control incubations were prepared as above with omission of cofactors. Compound measurements were […]
separation with a 3 min gradient of 0.1% formic acid in methanol on a Kinetex C18, 50 × 2.1 mm 2.6 μm UPLC column (Phenomenex, Macclesfield, UK). […]
For orientation: Microsomes from liver hold many membrane-bound enzymes, among them those of drug oxidation.

Data set [3] can be described thus: logD7.4 assay (Chrom log D method). The note with it: reversed-phase HPLC on Phenomenex Luna C8 column, pH 7.4, read-out: Measured logD7.4. In kind it is physicochemical. As to the method: Calibration, validation and in-house compounds were prepared at 1mM in 10% DMSO / 90% Trizma solution (100mM Trizma in 75/25 methanol/water). 3 µL standard injections (with needle wash) of all calibration, validation and in-house samples were made onto a Phenomenex Luna C8 column (3µm, 100 x 4.6 mm, 100A, Phenomenex, Torrence, USA). Chromatographic separation at 30°C was carried out using […]
2 mL/min. The gradient was held at 0:100 water:organic for 0.8 minutes, then returned to the starting conditions of 95:5 water:organic for 0.2 minutes. The column was re-equilibrated for 5 minutes at the […]

Data set [4] can be described thus: NMR solubility assay. The class given is physicochemical. The note with it: kinetic solubility by NMR in HEPES buffer at pH 8, 4% DMSO; read-out: Aq. Sol. The method, then: 4. Supplementary experimental: physicochemical assays
0.5 mM TCEP, 10% D2O) was pipetted into the same well and mixed by up-down pipetting 3 times to create […]
It was then separated by centrifugation (1000 rpm
The plate was then sealed and incubated at room temperature for 20 hours, […]
165 µL of the supernatant was transferred to a 3 mm NMR tube (Bruker, Part No. Z112272) using liquid handler SamplePro Tube SJ S (Bruker). The concentration of the solubilized compound in solubility sample is measured by quantitative 1H-NMR using a single external standard (200 µM caffeine (Sigma, C1778) in PBS (pH 7.4) with 1% DMSO-d6).
The detail of the NMR method is as following: NMR data was collected on a Bruker Avance Neo 600 spectrometer equipped with a 5 mm TCI-CryoProbe. The 1H spectrum was referenced to the internal deuterated solvent. The operating frequency for 1H was 600 MHz. All NMR data were acquired at the […]
1H-NMR spectrum was acquired using a Bruker standard 1D lc1pngppsf2 pulse sequence with 32 scans.
The sweep width was 6.2 ppm with O1P set to 8.8 ppm, and the FID contained 16k time-domain data points. Relaxation delay was set to 20 sec. Water signal was suppressed. […]

In data set [5] the target is T1, human BCL6 BTB domain (Homo sapiens, UniProt P41182). The following applies: for BCL6 TR-FRET pIC50 mean: mean of replicates. In general terms: Time-resolved FRET reads energy transfer from a long-lived donor to a nearby acceptor.
The target in data set [6] is T1, human BCL6 BTB domain. In words: biochemical.
[7] abbreviates: OCI-Ly1, read-out: MSD degrader assay [OCI-LY1] Dmax individual replicates, single replicate values.
Setting [8] is: OCI-Ly1, read-out: MSD degrader assay [OCI-Ly1] Dmax, mean maximal degradation of BCL6, OCI-Ly1 cells, 2 h.
[9] abbreviates: read-out: MSD degrader assay [OCI-LY1] DC50 individual replicates, single replicate values.
Setting [10] is: read-out: MSD degrader assay [OCI-Ly1] DC50, geometric mean, OCI-Ly1 cells, 2 h incubation.
[11] abbreviates: read-out: BCL6 TR-FRET IC50, geometric mean, BCOR-AF633 peptide, 2 h incubation.
Setting [12] is: read-out: BCL6 TR-FRET IC50 individual replicates, single replicate values.
[13] abbreviates: BCL6 TR-FRET IC50 individual replicates, single replicate values.

Structures are written as SMILES. Values after ≈ are worked out from the molar mass of the structure shown. Values joined by “and” are separate entries in the source; they are usually repeats but may differ in a detail not shown here. Equal entries are not always repeated. Where two headings read alike, the source gives them in different places.

In general, Dmax refers to the greatest extent of degradation seen. Broadly, the DC50 is the concentration at which degradation of the target reaches its halfway point. By microsomal CLint is commonly meant the rate of metabolic loss divided by the concentration. Low readings indicate slow turnover, high ones rapid turnover. Broadly, the IC50 is the midpoint of a concentration-inhibition curve. On to `Cn1c(=O)c2c(c3cc(Nc4nc(N5CCC(F)(F)[C@H](O)C5)ncc4Cl)ccc31)N[C@@H](C1CC1)C(F)(F)CO2` (single isomer, unassigned) [8b], for which the Dmax in data set [1] (setting [7]) and in data set [1] (setting [8]) was below 30% in each case. The “degradation of BCL6 (in words)” value in data set [1] is “nondegrading isomer”. The “MSD degrader assay [OCI-Ly1] Dmax” value in data set [1] (OCI-Ly1 cells, 2 h) was above 30%. Further, the DC50 in data set [1] (setting [9]) and in data set [1] (setting [10]) was above 2000 nM each time. Moreover, in data set [2], the microsomal CLint at 0.5 h, 1 µM is 22 µL/min/mg. In data set [3], the chromatographic logD was 3. Besides, the solubility kinetic at 20 h in data set [4] was determined as 13 µM (≈ 7.4 µg/mL). Besides, the “BCL6 TR-FRET pIC50 mean” value in data set [5] was 8.3342. For the same compound, the IC50 in data set [5] (setting [11]) is 4.6 nM; in data set [5] (setting [12]), 4.8 nM and 4.7 nM and 4.4 nM.

Regarding `C[C@@H]1C[C@@H](O)CN(c2ncc(Cl)c(Nc3ccc4c(c3)c3c(c(=O)n4C)OCC(F)(F)[C@H](C4CC4)N3)n2)C1` [13a, (S)-10-((5-Chloro-2-((3R,5R)-3-hydroxy-5-methylpiperidin-1-yl)pyrimidin-4-yl)amino)-2-cyclopropyl-3,3-difluoro-7-methyl-1,2,3,4-tetrahydro-[1,4]oxazepino[2,3-c]quinolin-6(7H)-one], the Dmax in data set [1] (setting [7]) and in data set [1] (setting [8]) was below 30% throughout. In addition, the “degradation of BCL6 (in words)” value in data set [1] is listed as “nondegraders of BCL6”. Besides, the “MSD degrader assay [OCI-Ly1] Dmax” value in data set [1] (OCI-Ly1 cells, 2 h) is above 30%. Further, the DC50 in data set [1] (setting [9]) and in data set [1] (setting [10]) was above 2000 nM in each case. Also, the microsomal CLint at 0.5 h, 1 µM in data set [2] came to 78 µL/min/mg. Also, the chromatographic logD in data set [3] is 3. Moreover, the “BCL6 TR-FRET pIC50 mean” value in data set [5] stood at 8.0053. The IC50 in data set [5] (setting [11]) is 9.9 nM; in data set [5] (setting [12]), 9.9 nM; in data set [6] (setting [13]), 11.4 nM and 8.6 nM.

`C[C@H]1C[C@H](O)CN(c2ncc(Cl)c(Nc3ccc4c(c3)c3c(c(=O)n4C)OCC(F)(F)[C@H](C4CC4)N3)n2)C1` [13b, (S)-10-((5-Chloro-2-((3S,5S)-3-hydroxy-5-methylpiperidin-1-yl)pyrimidin-4-yl)amino)-2-cyclopropyl-3,3-difluoro-7-methyl-1,2,3,4-tetrahydro-[1,4]oxazepino[2,3-c]quinolin-6(7H)-one]: the Dmax in data set [1] (setting [7]) and in data set [1] (setting [8]) was below 30% each time. In addition, the “degradation of BCL6 (in words)” value in data set [1] is on record as “nondegraders of BCL6”. Further, the “MSD degrader assay [OCI-Ly1] Dmax” value in data set [1] (OCI-Ly1 cells, 2 h) was above 30%. Further, the DC50 in data set [1] (setting [9]) and in data set [1] (setting [10]) was above 2000 nM each time. In data set [2], this compound had a microsomal CLint at 0.5 h, 1 µM of 446 µL/min/mg. In data set [3], the chromatographic logD was found to be 3.1. In addition, the “BCL6 TR-FRET pIC50 mean” value in data set [5] was 8.2236. The IC50 was 6 nM in data set [5] (setting [11]); 4.9 nM and 6.4 nM and 6.8 nM in data set [6] (setting [13]).

In the case of `Cn1c(=O)c2c(c3cc(Nc4nc(N5CCC[C@H](O)C5)ncc4Cl)ccc31)N[C@@H](C1CC1)C(F)(F)CO2` [14b, (S)-10-((5-chloro-2-((S)-3-hydroxypiperidin-1-yl)pyrimidin-4-yl)amino)-2-cyclopropyl-3,3-difluoro-7-methyl-1,2,3,4-tetrahydro-[1,4]oxazepino[2,3-c]quinolin-6(7H)-one], the Dmax in data set [1] (setting [7]) and in data set [1] (setting [8]) was below 30% each time. Besides, the “degradation of BCL6 (in words)” value in data set [1] was “none was seen”. In addition, the “MSD degrader assay [OCI-Ly1] Dmax” value in data set [1] (OCI-Ly1 cells, 2 h) is on record as above 30%. Moreover, the DC50 in data set [1] (setting [9]) and in data set [1] (setting [10]) was above 2000 nM in each case. Also, the microsomal CLint at 0.5 h, 1 µM in data set [2] amounted to 139 µL/min/mg. Also, the solubility kinetic at 20 h in data set [4] was found to be 23 µM (≈ 12.3 µg/mL). Besides, the IC50 was 2.5 nM in data set [5] (setting [11]); 2.6 nM in data set [5] (setting [12]); 3 nM in data set [6] (BCL6 TR-FRET IC50, geometric mean, BCOR-AF633 peptide, 2 h incubation); 3.1 nM (2×) and 3.2 nM and 2.9 nM in data set [6] (setting [13]); 2.98 nM in data set [6] (BCL6 TR-FRET pIC50 mean, mean of replicates).

Consider `Cn1c(=O)n(CCC(C)(C)O)c2cc(Nc3nc(N4CCC(F)(F)C(CO)C4)ncc3Cl)ccc21` (centres unmarked) [compound 4, 5-((5-Chloro-2-(4,4-difluoro-3-(hydroxymethyl)piperidin-1-yl)pyrimidin-4-yl)amino)-3-(3-hydroxy-3-methylbutyl)-1-methyl-1,3-dihydro-2H-benzo[d]imidazol-2-one], for which, in data set [3], the chromatographic logD stood at 2.5. In data set [4], the solubility kinetic at 20 h is given as 294 µM (≈ 150 µg/mL).
